We go through 35 compounds from US7906522B2, “2-aminoquinazoline derivatives” (Kyowa Hakko Kirin Co., Ltd, priority 2005, dated 2011).

T1 sequence (Q16539 whole entry): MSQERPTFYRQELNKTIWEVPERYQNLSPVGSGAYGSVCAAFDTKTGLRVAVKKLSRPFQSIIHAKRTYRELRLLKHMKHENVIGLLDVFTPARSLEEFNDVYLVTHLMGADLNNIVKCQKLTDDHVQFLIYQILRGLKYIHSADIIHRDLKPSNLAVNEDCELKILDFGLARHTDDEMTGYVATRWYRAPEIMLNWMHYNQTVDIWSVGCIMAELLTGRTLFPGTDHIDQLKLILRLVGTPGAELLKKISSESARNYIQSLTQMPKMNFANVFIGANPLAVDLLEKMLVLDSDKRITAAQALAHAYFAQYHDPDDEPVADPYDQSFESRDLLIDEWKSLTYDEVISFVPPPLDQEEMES

This test addresses T1, Activated human p38α (Homo sapiens, UniProt Q16539).
T1 construct: purchased Upstate Biotechnology Inc. 14-251
The test is described as follows: p38MAP kinase inhibition test. Type of test: biochemical. The following applies: at a concentration of 1 μmol/L; substrate myelin basic protein, ATP 20 μmol/L, [γ-32P]ATP; read-out: enzyme inhibitory activity. As for the experimental part: p38MAP Kinase Inhibition Test
Activated human p38α was purchased from Upstate Biotechnology Inc. (Catalog No. 14-251). P38MAP kinase inhibitory activity was measured by the procedure described below with reference to the method by Whitmarsh A. J. and Davis R. J. [Methods in Enzymology (Method. Enzymol.), vol. 332, p. 319-336 (2001)]. As the substrate to be phosphorylated, a myelin basic protein (Catalog No. 133-13493, Wako Pure Chemical Industries, Ltd.) (20 μg/assay) was used. The reaction was carried out in a solution containing 3-[N-Morpholino]propanesulfonic acid (MOPS) (20 mmol/L, pH 7.2), β-glycerophosphoric acid (Sigma Corp.) (25 mmol/L), ethylenebis(oxyethylenenitrilo)tetraacetic acid (EGTA) (1 mmol/L), […] (Sigma-Aldrich Corp.) (1 mmol/L), dithiothreitol (DTT, Wako Pure Chemical Industries, Ltd.) (1 mmol/L), adenosine 5′-triphosphate (ATP, Sigma Corp.) (20 μmol/L), and MgCl2 (18.75 mmol/L) (total 40 μL/assay). The reaction was started by adding human p38α and [γ-^32P]ATP (1 μCi/assay), and incubation was performed at 30° C. for 15 minutes. The reaction was terminated by adding 4.5% v/v phosphoric acid (10 μL/well). Then, 45 μL of the reaction mixture was adsorbed onto phosphocellulose paper (p81 paper, Code No. 3698023, Whatman International, Maidstone, UK). The phosphocellulose paper was washed with 0.75% v/v phosphoric acid. Then, the radioactivity of the phosphorylated myelin basic protein ([^32P]) remaining on the phosphocellulose paper was measured with a scintillation counter (TRI-CARB2700TR, PerkinElmer, Boston, Mass., USA) using program No. 27 (data mode: cpm, measurement time: 1 min, Background substract: none, energy range measured: LL 0.0-UL 2000) or a scintillation counter (LS6500, BeckmanCoulter, Fullerton, Calif., USA) using program No. 17 (data mode: cpm, measurement time: 1 min, Background substract: none, energy range measured: high). The test compound was dissolved in DMSO before addition.
As for `N[C@H]1CC[C@H](Nc2ncc3cc(-c4ccccc4Cl)c(O)cc3n2)CC1` [Compound 158, 2-(trans-4-Aminocyclohexylamino)-6-(2-chlorophenyl)-7-hydroxyquinazoline], the inhibition at 1 µM is not below 50%. With `COc1cc2nc(NC3CCN(S(=O)(=O)CC(F)(F)F)CC3)ncc2cc1-c1ccccc1Cl` [Compound 14, 6-(2-Chlorophenyl)-7-methoxy-2-[1-(2,2,2-trifluoroethylsulfonyl)piperidin-4-ylamino]quinazoline], the inhibition at 1 µM was not below 50%.

For `CC[C@H](C)Nc1ncc2cc(-c3cc(NC(=O)c4ccc[nH]4)ccc3CO)ccc2n1` [Compound 273, (S)-2-(sec-Butylamino)-6-{2-hydroxymethyl-5-[(1H-pyrrol-2-yl)carbonylamino]phenyl}quinazoline], the inhibition at 1 µM was not below 50%.

With `COc1cc2nc(NC(C)C)ncc2cc1-c1ccccc1C(C)=O` [Compound 187, 6-(2-Acetylphenyl)-2-isopropylamino-7-methoxyquinazoline], the inhibition at 1 µM is not below 50%. For `COc1cc2nc(NC3CCNCC3)ncc2cc1-c1ccccc1Cl` [Compound 152, 6-(2-Chlorophenyl)-7-methoxy-2-(piperidin-4-ylamino)quinazoline], the inhibition at 1 µM was not below 50%.

Regarding `CCCS(=O)(=O)N1CCC(Nc2ncc3cc(-c4ccccc4Cl)c(O)cc3n2)CC1` [Compound 162, 6-(2-Chlorophenyl)-7-hydroxy-2-[1-(1-propylsulfonyl)piperidin-4-ylamino]quinazoline], the inhibition at 1 µM was not below 50%. With `CC(C)Nc1ncc2cc(-c3ccccc3Cl)c(OCC(=O)O)cc2n1` [Compound 33, 7-(Carboxymethyloxy)-6-(2-chlorophenyl)-2-isopropylaminoquinazoline] the figure was not below 50%. Turning to `COc1cc2nc(N)ncc2cc1-c1cc(NC(C)=O)ccc1C` [Compound 249, 6-(5-Acetylamino-2-methylphenyl)-2-amino-7-methoxyquinazoline], the inhibition at 1 µM is not below 50%. With `CC(C)Nc1ncc2cc(-c3ccccc3Cl)c(O)c(-c3ccccc3Cl)c2n1` [Compound 98, 6,8-Di(2-chlorophenyl)-7-hydroxy-2-(isopropylamino)quinazoline] the figure was not below 50%; with `COc1c(-c2ccccc2Cl)cc2cnc(NC(C)C)nc2c1C(=O)N1CCOCC1` [Compound 66, 6-(2-Chlorophenyl)-2-isopropylamino-8-(morpholinocarbonyl)-7-methoxyquinazoline], not below 50%. Turning to `COc1cc2nc(NC(C)C)ncc2cc1-c1cccc(C=O)c1` [Compound 197, 6-(3-Formylphenyl)-2-isopropylamino-7-methoxyquinazoline], the inhibition at 1 µM was not below 50%.

`CC(=O)Nc1ccc(CO)c(-c2cc3cnc(NC(C)C)nc3cc2C)c1` [Compound 280, 6-[(5-Acetylamino-2-hydroxymethyl)phenyl]-2-isopropylamino-7-methylquinazoline]: the inhibition at 1 µM is not below 50%. Turning to `Cc1cccc(C)c1Nc1ncc2cc(-c3cccc(NC(=O)c4cccc(N(C)C)c4)c3)c(O)cc2n1` [Compound 314, 6-{3-[(3-Dimethylaminophenyl)carbonylamino]phenyl}-2-(2,6-dimethylanilino)-7-hydroxyquinazoline], the inhibition at 1 µM was not below 50%. Turning to `Cc1ccc(NC(=O)c2ccc[n+]([O-])c2)cc1-c1ccc2nc(NC(C)C)ncc2c1` [Compound 263, 2-Isopropylamino-6-{2-methyl-5-[(pyridine-1-oxide-3-yl)carbonylamino]phenyl}quinazoline], the inhibition at 1 µM is not below 50%. The value for `CC(C)Nc1ncc2cc(-c3ccccc3Cl)c(OCc3cccc(C(=O)O)c3)cc2n1` [Compound 29, 7-(3-Carboxyphenylmethyloxy)-6-(2-chlorophenyl)-2-isopropylaminoquinazoline] was not below 50%; that for `Cc1ccccc1-c1cc2cnc(N[C@@H](C)C3CCCCC3)nc2cc1O` [Compound 172, (S)-2-(1-cyclohexylethylamino)-7-hydroxy-6-(2-methylphenyl)quinazoline] was not below 50%. The value for `Cc1cc2nc(NC(C)C)ncc2cc1-c1cccc(NC(=O)c2ccc[nH]2)c1` [Compound 278, 2-Isopropylamino-7-methyl-6-{3-[(1H-pyrrol-2-yl)carbonylamino]phenyl}quinazoline] was not below 50%; that for `COCOc1cc2nc(NC(C)C)ncc2cc1-c1ccccc1Cl` [Compound 26, 6-(2-Chlorophenyl)-2-isopropylamino-7-methoxymethyloxyquinazoline] was not below 50%; that for `COc1cc2nc(N[C@@H](C)CO)ncc2cc1-c1ccccc1C` [Compound 165, (S)-2-(1-Hydroxy-2-propylamino)-7-methoxy-6-(2-methylphenyl)quinazoline] was not below 50%.

For the compound `COc1cc2nc(NC(C)C)ncc2cc1-c1cc(NC(=O)c2ccc[nH]2)ccc1C` [Compound 232, 2-Isopropylamino-7-methoxy-6-{2-methyl-5-[(1H-pyrrol-2-yl)carbonylamino]phenyl}quinazoline], the inhibition at 1 µM was not below 50%. Consider `Cc1ccccc1-c1cc2cnc(Nc3c(C)cccc3C(C)C)nc2cc1O` [Compound 177, 7-Hydroxy-2-(2-isopropyl-6-methylanilino)-6-(2-methylphenyl)quinazoline], for which the inhibition at 1 µM is not below 50%. The value for `CCS(=O)(=O)N1CCC(Nc2ncc3cc(-c4ccccc4Cl)c(OC)cc3n2)CC1` [Compound 142, 6-(2-Chlorophenyl)-2-[1-(ethylsulfonyl)piperidin-4-ylamino]-7-methoxyquinazoline] was not below 50%; that for `Cc1ccccc1-c1cc2cnc(N[C@@H](C)C(C)C)nc2cc1O` [Compound 173, (S)-2-(3-methyl-2-butylamino)-7-hydroxy-6-(2-methylphenyl)quinazoline] was not below 50%; that for `CC(C)Nc1ncc2cc(C(=O)c3cccc(O)c3)c(O)cc2n1` [Compound 123, 7-Hydroxy-6-(3-hydroxybenzoyl)-2-(isopropylamino)quinazoline] was not below 50%.

`COc1cc2nc(NC(C)C)ncc2cc1-c1ccccc1F` [Compound 190, 6-(2-Fluorophenyl)-2-isopropylamino-7-methoxyquinazoline]: the inhibition at 1 µM is not below 50%. On to `CC(C)Nc1ncc2cc(-c3cccc(NC(=O)c4ccc[nH]4)c3)c(O)cc2n1` [Compound 292, 7-Hydroxy-2-isopropylamino-6-{3-[(1H-pyrrol-2-yl)carbonylamino]phenyl}quinazoline], for which the inhibition at 1 µM was not below 50%. Consider `COc1cc2nc(NC3CCOCC3)ncc2cc1-c1ccccc1Cl` [Compound 11, 6-(2-Chlorophenyl)-7-methoxy-2-(4-tetrahydropyranylamino)quinazoline], for which the inhibition at 1 µM is not below 50%. For the compound `COc1cc2nc(NC(C)C)ncc2cc1C(=O)c1cccc(C)c1` [Compound 114, 2-Isopropylamino-7-methoxy-6-(3-methylbenzoyl)quinazoline], the inhibition at 1 µM was not below 50%. `CC(C)Nc1ncc2cc(-c3cc(NC(=O)c4ccc[nH]4)ccc3CO)ccc2n1` [Compound 255, 6-{2-Hydroxymethyl-5-[(1H-pyrrol-2-yl)carbonylamino]phenyl}-2-(isopropylamino)quinazoline]: the inhibition at 1 µM is not below 50%. In the case of `CS(=O)(=O)N1CCC(Nc2ncc3cc(-c4cccc(O)c4)ccc3n2)CC1` [Compound 276, 6-(3-Hydroxyphenyl)-2-[1-(methylsulfonyl)piperidin-4-ylamino]quinazoline], the inhibition at 1 µM is not below 50%.

`COc1ccc(NC(C)=O)cc1-c1cc2cnc(NC(C)C)nc2cc1OC` [Compound 234, 6-(5-Acetylamino-2-methoxyphenyl)-2-isopropylamino-7-methoxyquinazoline]: the inhibition at 1 µM is not below 50%. As for `COc1cc2nc(NC(C)C)ncc2cc1-c1cc(NC(C)=O)ccc1C` [Compound 230, 6-(5-Acetylamino-2-methylphenyl)-2-isopropylamino-7-methoxyquinazoline], the inhibition at 1 µM is not below 50%. On to `CC(C)Nc1ncc2cc(-c3ccccc3Cl)c(OCC(C)(C)O)cc2n1` [Compound 34, 6-(2-Chlorophenyl)-7-(2-hydroxy-2-methylpropyloxy)-2-isopropylaminoquinazoline], for which the inhibition at 1 µM was not below 50%. With `COc1cc2nc(Nc3c(Cl)cccc3Cl)ncc2cc1-c1ccccc1Cl` [Compound 17, 6-(2-Chlorophenyl)-2-(2,6-dichloroanilino)-7-methoxyquinazoline] the figure was not below 50%; with `CC(C)Nc1ncc2cc(-c3ccccc3Cl)c(OCC(=O)N3CCN(C)CC3)cc2n1` [Compound 40, 6-(2-Chlorophenyl)-2-isopropylamino-7-[(4-methylpiperazin-1-ylcarbonyl)methyloxy]quinazoline], not below 50%.
